We go through twelve compounds from patent publication US20250059188A1, “ARYLSULPHONAMIDE COMPOUNDS” (Anaxis Pharma Pty Ltd, priority 2021, published 2025).

In assay [1] the test system is Immortalised Mouse Dermal Fibroblasts (MDFs). In words: Inhibition of TSI induced necroptosis in mouse dermal fibroblasts (CellTitre-Glo). As to conditions: Mus musculus, Fibroblast, 3 h, MDF cells, TSI cocktail (TNF, Smac mimetic, IDN-6556), read-out: Inhibition of TSI-induced necroptosis (IC50 cell-based assay) in MDF. Put shortly: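 Immortalised MDFs (2200 cells/well, DMEM + 7.4% FBS) pretreated 30 min with compound (36 μM top, 1:3, 10 points, 0.3% DMSO), then 3 h with TNF 100 ng/ml, Smac mimetic 500 nM and IDN-6556 10 μM at 37 °C. Viability by CellTiter-Glo luminescence; IC50 from 4-parameter logistic fit.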

Another assay addresses human RIPK3 (Homo sapiens (Human), UniProt Q9Y572). In words: KINOMEscan binding assay, human RIPK3. As to conditions: equilibrium dissociation constant. The method in brief:
(§1)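 In this assay, compounds displace DNA- or phage-tagged kinase from an immobilized ligand, and eluted kinase is quantified by qPCR.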

Another assay has as its target human MLKL (full length) (Homo sapiens (Human), UniProt Q8NB16). In words: KINOMEscan binding assay, human MLKL (full length). As to conditions: equilibrium dissociation constant. The method in brief: as §1
A further assay addresses human RIPK1 (Homo sapiens (Human), UniProt Q13546). In words: KINOMEscan binding assay, human RIPK1. As to conditions: equilibrium dissociation constant. The method in brief:
as §1

The IC50 is the concentration needed to halve the response being measured. As a reminder, the Kd is the equilibrium constant for the complex coming apart. A high value points to a looser complex.

Where only a bound is given, the exact number is not on record here.

Chain of human MLKL (full length) (Q8NB16 whole entry): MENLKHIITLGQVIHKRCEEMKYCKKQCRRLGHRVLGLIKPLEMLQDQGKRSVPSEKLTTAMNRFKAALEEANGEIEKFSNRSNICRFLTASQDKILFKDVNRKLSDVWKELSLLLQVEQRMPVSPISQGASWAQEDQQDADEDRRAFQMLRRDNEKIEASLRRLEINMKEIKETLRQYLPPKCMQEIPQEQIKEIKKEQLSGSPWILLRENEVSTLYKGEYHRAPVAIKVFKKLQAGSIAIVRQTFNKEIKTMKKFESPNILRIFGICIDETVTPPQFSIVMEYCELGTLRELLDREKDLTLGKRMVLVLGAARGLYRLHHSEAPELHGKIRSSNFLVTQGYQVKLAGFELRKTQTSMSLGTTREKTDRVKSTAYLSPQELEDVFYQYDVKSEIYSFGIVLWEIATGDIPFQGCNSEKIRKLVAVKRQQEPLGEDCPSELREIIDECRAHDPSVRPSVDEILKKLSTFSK
Chain of human RIPK3 (Q9Y572 whole entry): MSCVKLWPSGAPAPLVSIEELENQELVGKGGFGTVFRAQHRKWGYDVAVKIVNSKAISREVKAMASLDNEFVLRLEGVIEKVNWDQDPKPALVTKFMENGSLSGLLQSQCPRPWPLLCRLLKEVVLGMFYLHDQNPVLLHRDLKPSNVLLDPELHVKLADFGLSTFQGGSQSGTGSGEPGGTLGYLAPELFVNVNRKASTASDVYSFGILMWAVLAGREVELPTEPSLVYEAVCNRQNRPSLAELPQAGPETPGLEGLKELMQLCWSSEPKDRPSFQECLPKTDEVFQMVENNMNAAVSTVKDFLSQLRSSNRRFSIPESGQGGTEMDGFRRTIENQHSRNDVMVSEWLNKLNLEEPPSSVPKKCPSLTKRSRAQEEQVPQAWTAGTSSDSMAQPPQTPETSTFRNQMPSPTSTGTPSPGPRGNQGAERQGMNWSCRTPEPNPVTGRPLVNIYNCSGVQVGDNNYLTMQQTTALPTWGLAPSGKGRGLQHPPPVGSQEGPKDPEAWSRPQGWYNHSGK
Chain of human RIPK1 (Q13546 whole entry): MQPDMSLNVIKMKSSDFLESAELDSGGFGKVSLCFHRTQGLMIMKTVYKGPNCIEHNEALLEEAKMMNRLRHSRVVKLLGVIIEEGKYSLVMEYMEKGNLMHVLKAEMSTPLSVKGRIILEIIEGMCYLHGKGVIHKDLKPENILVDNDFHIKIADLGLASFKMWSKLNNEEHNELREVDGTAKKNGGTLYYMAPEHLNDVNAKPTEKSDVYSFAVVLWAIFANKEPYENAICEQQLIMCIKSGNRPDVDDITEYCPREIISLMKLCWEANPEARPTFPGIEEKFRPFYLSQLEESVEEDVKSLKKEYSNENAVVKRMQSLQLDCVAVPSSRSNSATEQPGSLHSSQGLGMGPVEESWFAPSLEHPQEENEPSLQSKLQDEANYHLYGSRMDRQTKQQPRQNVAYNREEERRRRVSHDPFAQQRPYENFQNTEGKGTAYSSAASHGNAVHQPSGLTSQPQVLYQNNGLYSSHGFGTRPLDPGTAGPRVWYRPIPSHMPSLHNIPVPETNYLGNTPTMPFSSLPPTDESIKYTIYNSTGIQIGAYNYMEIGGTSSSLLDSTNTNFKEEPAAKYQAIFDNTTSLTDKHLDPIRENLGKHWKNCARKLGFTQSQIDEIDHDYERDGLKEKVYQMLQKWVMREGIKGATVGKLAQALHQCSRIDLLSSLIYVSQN

For the compound `C[C@H](Oc1cc(-c2nn(C)c3c(-c4cnn(C5CCC(F)(F)CC5)c4)cnc(N)c23)ccc1NS(=O)(=O)C(F)F)c1ccc(F)cc1` [Compound 146, (S)-N-(4-(4-amino-7-(1-(4,4-difluorocyclohexyl)-1H-pyrazol-4-yl)-1-methyl-1H-pyrazolo[4,3-c]pyridin-3-yl)-2-(1-(4-fluorophenyl)ethoxy)phenyl)-1,1-difluoromethanesulfonamide], the IC50 in assay [1] was 1000 to 10000 nM. Further, the Kd at human RIPK3 is greater than 10000 nM; on human MLKL (full length), 1 to 100 nM; at human RIPK1 it was greater than 10000 nM.

For `CC1C(n2cc(-c3cnc(N)c4c(-c5ccc(NS(=O)(=O)C(F)F)c(O[C@@H](C)c6ccc(F)cc6)c5)nn(C)c34)cn2)CN1C` (stereo partly drawn) [Compound 147, N-(4-(4-amino-7-(1-(1,2-dimethylazetidin-3-yl)-1H-pyrazol-4-yl)-1-methyl-1H-pyrazolo[4,3-c]pyridin-3-yl)-2-((S)-1-(4-fluorophenyl)ethoxy)phenyl)-1,1-difluoromethanesulfonamide], the IC50 in assay [1] was 100 to 1000 nM. Further, the Kd at human RIPK3 was greater than 10000 nM; at human MLKL (full length) it was 1 to 100 nM; on human RIPK1, greater than 10000 nM.

With `C[C@H](Oc1cc(-c2nn(C)c3c(-c4cnn(C5CCN(C)C(C(F)(F)F)C5)c4)cnc(N)c23)ccc1NS(=O)(=O)C(F)F)c1ccc(F)cc1` (stereo partly drawn) [Compound 148, N-(4-(4-amino-1-methyl-7-(1-(1-methyl-2-(trifluoromethyl)piperidin-4-yl)-1H-pyrazol-4-yl)-1H-pyrazolo[4,3-c]pyridin-3-yl)-2-((S)-1-(4-fluorophenyl)ethoxy)phenyl)-1,1-difluoromethanesulfonamide], the IC50 in assay [1] is 100 to 1000 nM. In addition, the Kd on human RIPK3 was greater than 10000 nM; at human MLKL (full length) it was 1 to 100 nM; at human RIPK1, greater than 10000 nM.

Consider `C[C@H](Oc1cc(-c2nn(C)c3c(-c4cnn(C5CC6CCC(C5)N6CC(F)(F)F)c4)cnc(N)c23)ccc1NS(=O)(=O)C(F)F)c1ccc(F)cc1` (stereo partly drawn) [Compound 153, N-(4-(4-amino-1-methyl-7-(1-(8-(2,2,2-trifluoroethyl)-8-azabicyclo[3.2.1]octan-3-yl)-1H-pyrazol-4-yl)-1H-pyrazolo[4,3-c]pyridin-3-yl)-2-((S)-1-(4-fluorophenyl)ethoxy)phenyl)-1,1-difluoromethanesulfonamide], for which, in assay [1], the IC50 is 100 to 1000 nM. The Kd on human RIPK3 was greater than 10000 nM; on human MLKL (full length), 1 to 100 nM; at human RIPK1, greater than 10000 nM.

For the compound `Cc1c(-c2cnc(N)c3c(-c4ccc(NS(=O)(=O)C(F)F)c(O[C@@H](C)c5ccc(F)cc5)c4)nn(C)c23)cnn1C1CCN(C)C(C)(C)C1` (stereo partly drawn) [Compound 157, N-(4-(4-amino-1-methyl-7-(5-methyl-1-(1,2,2-trimethylpiperidin-4-yl)-1H-pyrazol-4-yl)-1H-pyrazolo[4,3-c]pyridin-3-yl)-2-((S)-1-(4-fluorophenyl)ethoxy)phenyl)-1,1-difluoromethanesulfonamide], in assay [1], the IC50 was 1000 to 10000 nM. For the same compound, the Kd on human RIPK3 is greater than 10000 nM; on human MLKL (full length) it was 1 to 100 nM; on human RIPK1, greater than 10000 nM.

As to `C[C@H](Oc1cc(-c2nn(C)c3c(-c4cnn(C5CCN(C)C(C)(C)C5)c4)cnc(N)c23)ccc1NS(=O)(=O)C(F)F)c1ccc(Cl)cc1` (stereo partly drawn) [Compound 159, N-(4-(4-amino-1-methyl-7-(1-(1,2,2-trimethylpiperidin-4-yl)-1H-pyrazol-4-yl)-1H-pyrazolo[4,3-c]pyridin-3-yl)-2-((S)-1-(4-chlorophenyl)ethoxy)phenyl)-1,1-difluoromethanesulfonamide], the IC50 in assay [1] was less than 100 nM. Further, the Kd on human RIPK3 is greater than 10000 nM; at human MLKL (full length) it was less than 1 nM; at human RIPK1 it was greater than 10000 nM.

On to `C[C@H](Oc1cc(-c2nn(C)c3c(-c4cnn(C5CC(C)(C)N(C)C(C)(C)C5)c4)cnc(N)c23)ccc1NS(=O)(=O)C(F)F)c1ccc(F)cc1` [Compound 162, (S)-N-(4-(4-amino-1-methyl-7-(1-(1,2,2,6,6-pentamethylpiperidin-4-yl)-1H-pyrazol-4-yl)-1H-pyrazolo[4,3-c]pyridin-3-yl)-2-(1-(4-fluorophenyl)ethoxy)phenyl)-1,1-difluoromethanesulfonamide], for which the concentration for half-maximal inhibition (IC50) in assay [1] was less than 100 nM. Moreover, the Kd on human RIPK3 is greater than 10000 nM; at human MLKL (full length) it was less than 1 nM; at human RIPK1 it was greater than 10000 nM.

Take `C[C@H](Oc1cc(-c2nn(C)c3c(-c4cnn(C5C[C@H]6CNC[C@H]6C5)c4)cnc(N)c23)ccc1NS(=O)(=O)C(F)F)c1ccc(F)cc1` (stereo partly drawn) [Compound 163, N-(4-(4-amino-1-methyl-7-(1-((3aR,6aS)-octahydrocyclopenta[c]pyrrol-5-yl)-1H-pyrazol-4-yl)-1H-pyrazolo[4,3-c]pyridin-3-yl)-2-((S)-1-(4-fluorophenyl)ethoxy)phenyl)-1,1-difluoromethanesulfonamide]: the half-maximal inhibitory concentration (IC50) in assay [1] fell in the range of 1000 to 10000 nM. Besides, the Kd at human RIPK3 was greater than 10000 nM; on human MLKL (full length), less than 1 nM; at human RIPK1 it was greater than 10000 nM.

As to `C[C@H](Oc1cc(-c2nn(C)c3c(-c4cnn(C5C[C@@H]6CN(C)C[C@@H]6C5)c4)cnc(N)c23)ccc1NS(=O)(=O)C(F)F)c1ccc(F)cc1` (stereo partly drawn) [Compound 164, N-(4-(4-amino-1-methyl-7-(1-((3aR,6aS)-2-methyloctahydrocyclopenta[c]pyrrol-5-yl)-1H-pyrazol-4-yl)-1H-pyrazolo[4,3-c]pyridin-3-yl)-2-((S)-1-(4-fluorophenyl)ethoxy)phenyl)-1,1-difluoromethanesulfonamide], the IC50 in assay [1] is less than 100 nM. For the same compound, the Kd at human RIPK3 is greater than 10000 nM; at human MLKL (full length) it was less than 1 nM; at human RIPK1, greater than 10000 nM.

Consider `C[C@H](Oc1cc(-c2nn(C)c3c(-c4ccc5c(cnn5C)c4)cnc(N)c23)ccc1NS(=O)(=O)C(F)F)c1ccc(F)cc1` [Compound 166, (S)-N-(4-(4-amino-1-methyl-7-(1-methyl-1H-indazol-5-yl)-1H-pyrazolo[4,3-c]pyridin-3-yl)-2-(1-(4-fluorophenyl)ethoxy)phenyl)-1,1-difluoromethanesulfonamide], for which the half-inhibitory concentration (IC50) in assay [1] is 1000 to 10000 nM. The Kd at human RIPK3 was greater than 10000 nM; on human MLKL (full length), 1 to 100 nM; on human RIPK1, greater than 10000 nM.

Consider `C[C@H](Oc1cc(-c2nn(C)c3c(-c4cnn(C5CCN(CC(F)(F)F)C(C)(C)C5)c4)cnc(N)c23)ccc1NS(=O)(=O)C(F)F)c1ccc(F)cc1` (stereo partly drawn) [Compound 167, N-(4-(4-amino-7-(1-(2,2-dimethyl-1-(2,2,2-trifluoroethyl)piperidin-4-yl)-1H-pyrazol-4-yl)-1-methyl-1H-pyrazolo[4,3-c]pyridin-3-yl)-2-((S)-1-(4-fluorophenyl)ethoxy)phenyl)-1,1-difluoromethanesulfonamide], for which, in assay [1], the IC50 is less than 100 nM. The results for the Kd on human RIPK3, at human MLKL (full length) and at human RIPK1 were greater than 10000 nM, 1 to 100 nM and greater than 10000 nM, respectively.

Regarding `CC1CN(C)CC(C)C1n1cc(-c2cnc(N)c3c(-c4ccc(NS(=O)(=O)C(F)F)c(O[C@@H](C)c5ccc(F)cc5)c4)nn(C)c23)cn1` (stereo partly drawn) [Compound 172, N-(4-{4-amino-1-methyl-7-[1-(1,3,5-trimethylpiperidin-4-yl)-1H-pyrazol-4-yl]-1H-pyrazolo[4,3-c]pyridin-3-yl}-2-[(1S)-1-(4-fluorophenyl)ethoxy]phenyl)-1,1-difluoromethanesulfonamide], the IC50 in assay [1] is less than 100 nM. The dissociation constant Kd at human RIPK3 is greater than 10000 nM; on human MLKL (full length), 1 to 100 nM; at human RIPK1, greater than 10000 nM.
